Assay results taken from paper PMC10740580, “Benzothiazole-Phthalimide Hybrids as Anti-Breast Cancer and Antimicrobial Agents” (Antibiotics, 2023).
Converted amounts (≈) assume the structure as drawn.

Legend:
MCF-10A cells = assay: MTT cell viability assay, nonmalignant MCF-10A; type: cell-based; settings: Homo sapiens, 72 h exposure, nonmalignant breast epithelial cells, mean ± SD, read-out: IC50 MCF10-A
Description: (§1) The anticancer activity of the studied compounds (3a–h) was explored with regards to two human breast cancer cell lines, namely the estrogen receptor positive (ER+) MCF-7 cells and the triple negative MDA-MB-231 cells (ER-, PR-, and HER-2/Neu-). Cells were continuously exposed to the test substances for 72 h, after which their viability was assessed by means of the MTT assay. Table 2 lists the determined IC50 values for the investigated substances and the reference drug, thalidomide. […] Additionally, the same test for all the compounds has been performed on nonmalignant breast epithelial cells (MCF-10A) to ascertain their potential cytotoxicity.
(§2) The four cell lines used in this work (MCF-7, MDA-MB-231, MCF-10A, and 3T3-L1) were obtained from the American Type Culture Collection (ATCC, Manassas, VA, USA). All cell lines were maintained at 37 °C in a humidified atmosphere of 95% air and 5% CO2 and periodically screened for contamination. MCF-7, human breast cancer cells estrogen receptor (ER)-positive, and human breast cancer triple negative MDA-MB231 were grown in DMEM-F12 medium containing 2 mmol/L L-glutamine, 1 mg/mL penicillin–streptomycin, and 5% newborn calf serum (NCS) or 5% fetal bovine serum (FBS), respectively. MCF-10A human mammary epithelial cells were cultured in DMEM/F12 medium, supplemented with 5% horse serum (HS) (Eurobio, Les Ullis, Cedex, France), 100 U/mL penicillin/streptomycin, […], 20 ng/mL hEGF (human epidermal growth factor), […], and […] (Sigma-Aldrich, Milano, Italy). BALB/3T3 murine fibroblast cells were cultured in DMEM high glucose supplemented with 10% bovine calf serum (BCS), 1% L-glutamine, and 100 U/mL penicillin/streptomycin.
(§3) Cell viability was evaluated by means of the 3-(4,5-dimethylthiazol-2-y1)-2,5-diphenyltetra zolium bromide (MTT, Sigma-Aldrich, Milan, Italy) assay. On 48-well plates, cells were seeded, and they were cultured in complete medium. Before being treated, cells were starved in serum-free medium for 24 h to allow cell cycle synchronization. Subsequently, cells were exposed to increasing doses of each compound for 72 h in phenol-red-free media supplemented with 1% serum before fresh MTT was added to each well (final concentration: 0.5 mg/mL). Cells were lysed with DMSO after 2 h of incubation at 37 °C, and optical density at 570 nm was then determined with a microplate reader. Using GraphPad Prism 9 software (GraphPad Inc., San Diego, CA, USA), the mean absorbance for each sample was expressed as a percentage over the control and plotted vs. drug concentrations to establish the IC50 values. The given standard deviations (SDs) are indicative of three separate tests carried out in triplicate.

MDA-MB-231 cells [1] = assay: MTT cell viability assay, MDA-MB-231; type: cell-based, human; settings: Homo sapiens, MDA-MB-231, 72 h exposure, mean ± SD
Description: as §1, §2, §3

MCF-7 cells = assay: MTT cell viability assay, MCF-7; type: cell-based, human; settings: Homo sapiens, MCF7, 72 h exposure, mean ± SD
Description: as §1, §2, §3

MDA-MB-231 cells [2] = assay: TUNEL assay (DNA damage); type: cell-based, human; settings: 50 μM, 24 h
Description: To further assess the effect of 3h treatment in MDA-MB-231, the terminal deoxynucleotidyl transferase dUTP nick-end labeling (TUNEL) assay was used. Thus, 3h or Thalidomide, as reference drug, were administered to the cells, for 24 h, at 25 and 50 μM concentrations, respectively, or with only the vehicle (DMSO), as negative control and then processed as outlined in the experimental section. […] Nuclei were counterstained with blue DAPI (Figure 2, panels A), and merge channels were also shown (Figure 2, panels C), where it is evident the perfect superposition of green and blue signals. […] Images taken from bright fields were also included (Figure 2, panels D).
DNA damage and cell death were analyzed by means of the TUNEL assay as indicated by the manufacturer’s protocols (CF™488A TUNEL Assay Apoptosis Detection Kit, Biotium, Hayward, CA, USA), with few changes, as in [42]. DAPI staining (0.2 μg/mL, Sigma Aldrich, Milan, Italy) was adopted for cell nuclei. Observations were made at 20× magnification using a fluorescence microscope (Leica DM 6000, Leica Microsystem Srl, Buccinasco, Italy). LAS-X software (Version: 3.5.7.23225; Leica Microsystem Srl, Buccinasco, Italy) was employed for the acquisition and processing of the images. Images are representative of two separate experiments from which different fields were acquired.
Figure 2 TUNEL assay. […]

Candida albicans 90028 = assay: Antifungal microdilution, C. albicans ATCC 90028; type: cell-based; settings: microdilution CLSI M27-A3, 48 h, 37 °C
Description: (§4) In accordance with CLSI guidelines, compounds 3a–h were tested against a variety of fungal strains (Candida albicans 10231, Candida albicans 90028, Candida glabrata 15126, and Candida parapsilosis 22019) belonging to the ATCC collection. Amphotericin B was utilized as a reference drug. A similar trend of results, or even better than that obtained against bacteria, was assessed against fungal strains. […] Also, in this case, compound 3h emerged as the best of the series, with MICs of 16 μg/mL against Candida glabrata and Candida parapsilosis strains and 32 μg/mL against Candida albicans strains.
(§5) A microdilution technique described by the Clinical and Laboratory Standards Institute (CLSI, M27-A3) was used to assess the antifungal activity. The following fungal strains, belonging to the ATCC collection and available as freeze-dried discs, were used: C. albicans ATCC 10231, C. albicans ATCC 90028, C. glabrata ATCC 15126, and C. parapsilosis ATCC 22019. Stock solutions were prepared and preserved with purity as previously described for the antibacterial studies. Each yeast strain’s pre-cultures were made in Sabouraud broth (SAB) and allowed to grow until they stopped at 37 °C. By using a spectrophotometric technique (530 nm, range 0.12–0.15), the turbidity of the yeast stock suspension was calibrated to 0.5 McFarland Standard. Next, the standardized suspension was diluted first at 1:50 with SAB and then at 1:20 in the same medium to have […]. A total of 100 µL of inoculum was seeded into each well. As a control for growth, several wells containing only inoculated broth were prepared. The plates were incubated for 48 h at 37 °C, and the MIC values were calculated as the final well with no fungal growth. […] MIC values were observed based on the absence of fungal growth in the final well. The MICs were calculated by conducting the antifungal test three times in duplicate. As a control, amphotericin B was used.

Candida glabrata 15126 = assay: Antifungal microdilution, C. glabrata ATCC 15126; type: cell-based; settings: Nakaseomyces glabratus, microdilution CLSI M27-A3, 48 h, 37 °C, read-out: MIC C.g. 15126
Description: as §4, §5

Candida albicans 10231 = assay: Antifungal microdilution, C. albicans ATCC 10231; type: cell-based; settings: microdilution CLSI M27-A3, 48 h, 37 °C
Description: as §4, §5

[3] = tested on: Candida parapsilosis 22019; assay: Antifungal microdilution, C. parapsilosis ATCC 22019; type: cell-based; settings: microdilution CLSI M27-A3, 48 h, 37 °C, read-out: MIC C.p. 22019
Description: as §4, §5

[4] = tested on: Staphylococcus aureus 25923; assay: Broth microdilution, S. aureus ATCC 25923; type: cell-based; settings: Staphylococcus aureus, 25923, 24 h, 37 °C
From the text: (§6) Compounds 3a–h were examined in accordance with the Clinical Laboratory Standards Institute (CLSI) recommendations, by means of the broth microdilution method, against gram-positive bacteria (Staphylococcus aureus 25923, Staphylococcus aureus 29213, Staphylococcus aureus 43300, Enterococcus faecalis 29212) and gram-negative bacteria (Escherichia coli 25922, Klebsiella pneumoniae 13883, Pseudomonas aeruginosa 27853) belonging to the ATCC collection, using levofloxacin as a reference drug. Table 3 lists the results, expressed as MIC (µg/mL). […] The lack of activity observed for compound 3d could be conceivably due to its poor solubility in the culture medium containing the inoculum.
(§7) Following the recommendations of the CLSI (Clinical and Laboratory Standards Institute, 2012), the broth microdilution method was used to determine the in vitro minimum inhibitory concentrations (MICs, µg/mL).. The concentration of the investigated compounds was set to its highest value to create stock solutions. Then, the stock solutions were diluted 1:10 with Cation-Adjusted Mueller Hinton Broth (Oxoid, Milan, Italy). After that, a series of concentrations from 512 µg/mL to […] were obtained in the wells by performing two-fold serial dilutions in the appropriate test medium. The diluent used to create the stock solution was 100% DMSO. We used the following bacterial strains from the ATCC collection that were available as freeze-dried discs: gram-positive strains such as S. aureus ATCC 25923, 29213, and 43300, and E. faecalis ATCC 29212, and gram-negative ones such as E. coli ATCC 25922, K. pneuomoniae ATCC 13883, and P. aeruginosa ATCC 27853. To preserve the purity of cultures and to allow their reproducibility, cryovials of all microbial strains were set up in the medium and stored at −80 °C. Mueller Hinton Broth (MHB) was used to prepare pre-cultures of each bacterial strain, which were then incubated for 3–5 h at 37 °C. In accordance with CLSI procedure M7-A9, the turbidity of the bacterial cell suspension was calibrated to 0.5 McFarland Standard using a spectrophotometric approach (OD625 nm 0.08–0.10). The standardized suspension was then further diluted (1:100) with MHB to reach 1–2 × 10^6 CFU/mL. A 200 µL aliquot of the final inoculum was inserted into each well. As a control for growth, several wells containing only inoculated broth were prepared. The plates were incubated at 37 °C for 24 h, and the MIC values were calculated as the lowest concentration of compounds at which there was no optically detectable bacteria growth. Each experiment was carried out in duplicate and repeated twice to determine the MICs. Levofloxacin served as the study’s standard reference antibiotic. Additionally, the antibacterial activity of DMSO alone (used as a diluent for the investigated compounds) was examined; therefore, volumes of this solvent with a concentration of less than 5% were utilized throughout the experimentation.

[5] = tested on: Pseudomonas aeruginosa 27853; assay: Broth microdilution, P. aeruginosa ATCC 27853; type: cell-based; settings: 24 h, 37 °C
From the text: as §6, §7

Escherichia coli 25922 = assay: Broth microdilution, E. coli ATCC 25922; type: cell-based; settings: 24 h, 37 °C
From the text: as §6, §7

[6] = tested on: Klebsiella pneumoniae 13883; assay: Broth microdilution, K. pneumoniae ATCC 13883; type: cell-based; settings: 24 h, 37 °C, read-out: MIC K.p. 13883
From the text: as §6, §7

[7] = tested on: Staphylococcus aureus 29213; assay: Broth microdilution, S. aureus ATCC 29213; type: cell-based; settings: 24 h, 37 °C
From the text: as §6, §7

[8] = tested on: Acinetobacter baumanii 19606; assay: Broth microdilution, A. baumanii 19606; type: cell-based; settings: Acinetobacter baumannii, 24 h, 37 °C, read-out: MIC A.b. 19606
[9] = tested on: Enterococcus faecalis 29212; assay: Broth microdilution, E. faecalis ATCC 29212; type: cell-based; settings: 24 h, 37 °C, read-out: MIC E.f. 29212
From the text: as §6, §7

[10] = tested on: Staphylococcus aureus 43300; assay: Broth microdilution, S. aureus ATCC 43300; type: cell-based; settings: 24 h, 37 °C, methicillin-resistant
From the text: as §6, §7

O=C1CCC(N2C(=O)c3ccccc3C2=O)C(=O)N1 (stereo not shown) [thalidomide, reference compound]
IC50 (MCF-10A cells): > 500 µM | IC50 (MDA-MB-231 cells [1]): 413 ± 2 µM | IC50 (MCF-7 cells): 360 ± 2 µM | DNA damage (TUNEL, green nuclear fluorescence) (MDA-MB-231 cells [2]): found to damage DNA

C[C@@H]1[C@H](O)[C@@H](C)/C=C/C=C/C=C/C=C/C=C/C=C/C=C/[C@H](O[C@@H]2O[C@H](C)[C@@H](O)[C@H](N)[C@@H]2O)C[C@@H]2O[C@](O)(C[C@@H](O)C[C@@H](O)[C@H](O)CC[C@@H](O)C[C@@H](O)CC(=O)O[C@H]1C)C[C@H](O)[C@H]2C(=O)O [amph B, amphotericin B, reference compound]
MIC (Candida albicans 90028): 1 µg/mL (≈ 1.08 µM) | MIC (Candida glabrata 15126): 2 µg/mL (≈ 2.16 µM) | MIC (Candida albicans 10231): 2 µg/mL (≈ 2.16 µM) | MIC [3]: 2 µg/mL (≈ 2.16 µM)

C[C@H]1COc2c(N3CCN(C)CC3)c(F)cc3c(=O)c(C(=O)O)cn1c23 [levofloxacin, reference compound]
MIC [4]: 0.5 µg/mL (≈ 1.38 µM) | MIC [5]: 4 µg/mL (≈ 11.1 µM) | MIC (Escherichia coli 25922): 0.06 µg/mL (≈ 0.166 µM) | MIC [6]: 8 µg/mL (≈ 22.1 µM) | MIC [7]: 0.5 µg/mL (≈ 1.38 µM) | MIC [8]: 8 µg/mL (≈ 22.1 µM) | MIC [9]: 2 µg/mL (≈ 5.53 µM) | MIC [10]: 0.5 µg/mL (≈ 1.38 µM)
